# Reference: patent publication US8796244B2, “Imidazopyridine derivatives as inhibitors of receptor tyrosine kinases” (Astex Therapeutics Ltd, priority 2008, dated 2014)
# Where a name gives a salt, the structure may show the parent alone. Read-outs that look alike come from different tables or passages of the source.
# Assays:
# Ba/F3-TEL-FGFR3 cells = test: Ba/F3-TEL-FGFR3 cell proliferation assay (Alamar Blue); type: cell-based
# FGFR3 = FGFR3 (Homo sapiens (Human), UniProt P22607); test: FGFR3 in vitro kinase inhibitory activity assay (TRF)
# [1] = test system: parental wild-type Ba/F3 cells; test: Ba/F3 (WT) cell proliferation assay (Alamar Blue); type: cell-based; details: Mus musculus
# VEGFR2 = VEGFR2 (Homo sapiens (Human), UniProt P35968); test: VEGFR2 in vitro kinase inhibitory activity assay (TRF, Flt3 substrate); type: biochemical
# [2] = test system: LP-1 cell line (FGF-1/Heparin induced pERK); test: Cell-based pERK ELISA, LP-1 cells; details: Homo sapiens, LP-1, read-out: LP-1 pERK ELISA (μM)
# [3] = 72 hours, Alamar Blue, read-out: BaF3-TEL-FGFR3 prolif
# [4] = BaF3, read-out: BaF3 WT prolif, % inhibition
# [5] = BaF3, at 10 μM, read-out: BaF3 WT prolif, % inhibition
# [6] = BaF3, 72 hours, Alamar Blue, read-out: BaF3 WT prolif
# [7] = 72 h, read-out: BaF3-TEL-FGFR3 prolif (μM)
# [8] = BaF3, 72 h, read-out: BaF3 WT prolif (μM)
# Sequence of FGFR3 (P22607 23-806): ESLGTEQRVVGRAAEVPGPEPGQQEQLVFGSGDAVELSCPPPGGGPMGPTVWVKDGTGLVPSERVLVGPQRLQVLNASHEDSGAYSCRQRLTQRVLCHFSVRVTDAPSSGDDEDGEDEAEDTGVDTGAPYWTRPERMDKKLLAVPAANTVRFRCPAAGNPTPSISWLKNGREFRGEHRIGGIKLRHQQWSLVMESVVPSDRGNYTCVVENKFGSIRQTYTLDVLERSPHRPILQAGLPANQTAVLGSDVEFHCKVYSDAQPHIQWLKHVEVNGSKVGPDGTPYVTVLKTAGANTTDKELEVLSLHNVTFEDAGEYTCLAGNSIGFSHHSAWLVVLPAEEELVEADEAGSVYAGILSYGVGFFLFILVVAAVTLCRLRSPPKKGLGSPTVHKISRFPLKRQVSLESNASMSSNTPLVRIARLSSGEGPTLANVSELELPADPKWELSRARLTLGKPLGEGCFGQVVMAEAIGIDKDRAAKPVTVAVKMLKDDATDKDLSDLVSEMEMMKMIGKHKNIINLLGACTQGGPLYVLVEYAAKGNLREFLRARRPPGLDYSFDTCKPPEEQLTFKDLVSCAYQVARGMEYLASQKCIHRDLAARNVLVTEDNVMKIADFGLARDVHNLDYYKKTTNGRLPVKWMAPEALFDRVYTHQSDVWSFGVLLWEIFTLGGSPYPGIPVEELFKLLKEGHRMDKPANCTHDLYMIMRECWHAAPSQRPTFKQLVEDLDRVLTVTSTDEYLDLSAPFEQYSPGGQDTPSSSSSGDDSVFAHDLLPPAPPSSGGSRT
# Sequence of VEGFR2 (P35968 20-1356): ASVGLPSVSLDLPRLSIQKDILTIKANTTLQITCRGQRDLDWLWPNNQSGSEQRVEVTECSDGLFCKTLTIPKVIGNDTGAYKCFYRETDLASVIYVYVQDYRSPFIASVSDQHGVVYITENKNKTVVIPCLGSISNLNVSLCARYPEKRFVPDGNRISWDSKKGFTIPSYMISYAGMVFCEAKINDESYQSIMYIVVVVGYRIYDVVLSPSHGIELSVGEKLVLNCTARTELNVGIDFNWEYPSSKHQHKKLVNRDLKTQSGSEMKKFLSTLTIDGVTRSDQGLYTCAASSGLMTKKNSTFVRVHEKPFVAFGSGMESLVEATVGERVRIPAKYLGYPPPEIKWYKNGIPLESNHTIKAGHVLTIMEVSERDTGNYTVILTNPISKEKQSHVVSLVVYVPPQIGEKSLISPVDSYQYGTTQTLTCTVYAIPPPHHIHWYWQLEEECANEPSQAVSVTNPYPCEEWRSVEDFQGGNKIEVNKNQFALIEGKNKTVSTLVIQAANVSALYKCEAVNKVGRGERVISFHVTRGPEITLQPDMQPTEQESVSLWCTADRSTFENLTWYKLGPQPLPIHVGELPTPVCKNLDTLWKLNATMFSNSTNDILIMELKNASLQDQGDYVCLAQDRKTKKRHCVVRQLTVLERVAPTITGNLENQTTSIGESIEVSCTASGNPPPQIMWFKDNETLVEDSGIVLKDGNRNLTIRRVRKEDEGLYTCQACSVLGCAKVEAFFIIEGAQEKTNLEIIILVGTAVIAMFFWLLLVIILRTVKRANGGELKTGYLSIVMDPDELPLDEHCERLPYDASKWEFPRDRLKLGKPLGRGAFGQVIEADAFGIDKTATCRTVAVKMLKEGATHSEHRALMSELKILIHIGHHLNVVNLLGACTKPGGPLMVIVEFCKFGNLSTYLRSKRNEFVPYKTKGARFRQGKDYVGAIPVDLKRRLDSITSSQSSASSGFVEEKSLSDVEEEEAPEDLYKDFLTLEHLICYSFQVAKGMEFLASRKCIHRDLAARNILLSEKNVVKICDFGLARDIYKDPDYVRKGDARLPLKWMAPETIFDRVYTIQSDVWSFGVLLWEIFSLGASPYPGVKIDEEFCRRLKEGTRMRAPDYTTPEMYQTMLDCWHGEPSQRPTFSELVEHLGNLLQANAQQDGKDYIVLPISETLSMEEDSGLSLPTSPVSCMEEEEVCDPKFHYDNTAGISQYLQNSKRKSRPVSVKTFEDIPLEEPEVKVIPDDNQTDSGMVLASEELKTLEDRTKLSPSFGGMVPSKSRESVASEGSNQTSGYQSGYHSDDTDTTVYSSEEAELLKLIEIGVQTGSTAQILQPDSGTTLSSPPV
smiles,measurement,setting,value
COCCNc1nnc(-c2ccn3c(-c4cccc(NC(=O)NCC(F)(F)F)c4)cnc3c2)s1 [Compound 288],IC50,Ba/F3-TEL-FGFR3 cells; [3],0.035 µM
same,inhibition at 0.0003 µM,"FGFR3; 3 h, read-out: FGFR3 % I",54%
same,inhibition at 10 µM,[1]; [4],7.8%
O=C(NCC(F)(F)F)Nc1cccc(-c2cnc3cc(-c4nccc(N5CCN(CCO)CC5)n4)ccn23)c1 [Compound 270],melting point,,179.8 °C
same,inhibition at 3 µM,[1]; [4],16%
COC(=O)c1cc(NC(=O)NCC(F)(F)F)cc(-c2cnc3cc(-c4ccnc(C(F)(F)F)n4)ccn23)c1 [Compound 307],inhibition at 1 µM,"VEGFR2; 1 h, at 1 μM, read-out: VEGFR2 % I",58%
same,inhibition at 10 µM,"Ba/F3-TEL-FGFR3 cells; at 10 μM, read-out: BaF3-TEL-FGFR3 prolif, % inhibition",25%
same,inhibition at 0.03 µM,"FGFR3; 3 h, read-out: FGFR3 % I",39%
same,inhibition at 10 µM,[1]; [5],0%
CCNC(=O)Nc1cccc(-c2cnc3cc(-c4ncc(OC)cn4)ccn23)c1 [Example 230],IC50,Ba/F3-TEL-FGFR3 cells; [3],0.09 µM
same,inhibition at 0.003 µM,"FGFR3; 3 h, read-out: FGFR3 % I",49%
same,IC50,[1]; [6],0.16 µM
"CC(C)(C(=O)N1CCC1)n1cc(-c2ccn3c(-c4cccc(NC(=O)NCC(F)(F)F)c4)cnc3c2)cn1 [Example 73, 1-(3-{7-[1-(2-Azetidin-1-yl-1,1-dimethyl-2-oxo-ethyl)-1H-pyrazol-4-yl]-imidazo[1,2-a]pyridin-3-yl}-phenyl)-3-(2,2,2-trifluoro-ethyl)-urea]",IC50,[2],0.12 µM
same,IC50,Ba/F3-TEL-FGFR3 cells; [3],0.13 µM
same,inhibition at 0.001 µM,"FGFR3; 3 h, read-out: FGFR3 % I",60%
same,IC50,[1]; [6],3.7 µM
O=C(NCC(F)(F)F)Nc1cccc(-c2cnc3cc(-c4ccc(O)cn4)ccn23)c1 [Example 202],IC50,Ba/F3-TEL-FGFR3 cells; [3],0.26 µM
same,inhibition at 0.001 µM,"FGFR3; 3 h, read-out: FGFR3 % I",46%
same,inhibition at 1 µM,[1]; [4],21%
Nc1nc(-c2ccn3c(-c4cccc(NC(=O)NCC(F)(F)F)c4)cnc3c2)ncc1C(=O)O (as salt: HCl) (hydrate or solvate) [Compound 277],melting point,,> 260 °C
"O=C(NCC(F)(F)F)Nc1cccc(-c2cnc3cc(-c4ccc(NC5CCOCC5)nn4)ccn23)c1 [Example 66, 1-(3-{7-[6-(Tetrahydro-pyran-4-ylamino)-pyridazin-3-yl]-imidazo[1,2-a]pyridin-3-yl}-phenyl)-3-(2,2,2-trifluoro-ethyl)-urea bis-hydrochloride]",IC50,[2],0.069 µM
same,IC50,Ba/F3-TEL-FGFR3 cells; [7],0.046 µM
same,inhibition at 0.0003 µM,"FGFR3; 3 h, read-out: FGFR3 % I",43%
same,IC50,[1]; [8],1.9 µM
"CC(C)N1CCC(n2cc(-c3ccn4c(-c5cccc(NC(=O)NCC(F)(F)F)c5)cnc4c3)cn2)CC1 [Example 50, 1-(3-{7-[1-(1-Isopropylpiperidin-4-yl)-1H-pyrazol-4-yl]imidazo[1,2-a]pyridin-3-yl}-phenyl)-3-(2,2,2-trifluoroethyl)urea hydrochloride]",IC50,[2],0.021 µM
same,IC50,Ba/F3-TEL-FGFR3 cells; [3],0.029 µM
same,inhibition at 0.0003 µM,"FGFR3; 3 h, read-out: FGFR3 % I",39%
same,IC50,[1]; [6],0.71 µM
N#Cc1cnc(-c2ccn3c(-c4cccc(NC(=O)NCC(F)(F)F)c4)cnc3c2)nc1N [Compound 165B],melting point,,161 °C
CC(C)(O)c1cnc(-c2ccn3c(-c4cccc(NC(=O)NCC(F)(F)F)c4)cnc3c2)nc1 [Compound 257],melting point,,146 °C
same,IC50,[1]; [6],3.9 µM
N#CCc1cc(NC(=O)NCC(F)(F)F)cc(-c2cnc3cc(-c4ccnc(C(F)(F)F)n4)ccn23)c1 [Compound 310],IC50,VEGFR2,> 3 µM
same,inhibition at 0.3 µM,"FGFR3; 3 h, read-out: FGFR3 % I",36%
O=C(NCC(F)(F)F)Nc1cccc(-c2cnc3cc(C#Cc4nccn4CCO)ccn23)c1 [Compound 262],melting point,,228 °C
same,inhibition at 10 µM,[1]; [4],20%
N#Cc1ccnc(-c2ccn3c(-c4cccc(NC(=O)NCC(F)(F)F)c4)cnc3c2)n1 [Compound 253],melting point,,210 °C
same,IC50,[1]; [6],1.8 µM
Nc1nnc(-c2ccn3c(-c4cccc(NC(=O)NCC(F)(F)F)c4)cnc3c2)s1 [Compound 261],melting point,,> 260 °C
same,inhibition at 10 µM,[1]; [4],0%
CNc1cc(-c2ccn3c(-c4cccc(NC(=O)NCC(F)(F)F)c4)cnc3c2)ncn1 [Example 195],IC50,Ba/F3-TEL-FGFR3 cells; [3],0.076 µM
same,inhibition at 0.00097 µM,"FGFR3; 3 h, read-out: FGFR3 % I",66%
same,IC50,[1]; [6],5 µM
Cn1cncc1C#Cc1ccn2c(-c3cccc(NC(N)=O)c3)cnc2c1 [Compound 267],melting point,,162 °C
same,inhibition at 10 µM,[1]; [4],55%
Cc1nnc(-c2ccn3c(-c4cccc(NC(=O)NC5CC5)c4)cnc3c2)o1 [Compound 157B],melting point,,229.6 °C
O=C(Nc1cccc(-c2cnc3cc(-c4nncs4)ccn23)c1)NC1CC1 [Compound 158B],melting point,,205 °C
CN(C)Cc1cnc(-c2ccn3c(-c4cccc(NC(=O)NCC(F)(F)F)c4)cnc3c2)nc1N [Compound 260],melting point,,130 °C
same,inhibition at 1 µM,[1]; [4],0%
O=C(NCC(F)(F)F)Nc1cccc(-c2cnc3cc(-c4nccc(N5CCNCC5)n4)ccn23)c1 (as salt: HCl) (hydrate or solvate) [Compound 269],melting point,,200 °C
COc1cc(NC(=O)NCC(F)(F)F)cc(-c2cnc3cc(-c4ncccn4)ccn23)c1 [Compound 304],inhibition at 3 µM,"VEGFR2; 1 h, read-out: VEGFR2 % I",59%
same,inhibition at 0.1 µM,"FGFR3; 3 h, read-out: FGFR3 % I",55%
CC(C)(O)c1ccc(-c2ccn3c(-c4cccc(NC(=O)NCC(F)(F)F)c4)cnc3c2)cc1 [Compound 321],IC50,Ba/F3-TEL-FGFR3 cells; [3],0.021 µM
same,inhibition at 0.0003 µM,"FGFR3; 3 h, read-out: FGFR3 % I",36%
same,IC50,[1]; [6],0.46 µM
O=C(NCC(F)(F)F)Nc1cccc(-c2cnc3cc(-c4ccnc(-n5ccnc5)n4)ccn23)c1 [Example 215],IC50,VEGFR2,> 10 µM
same,IC50,Ba/F3-TEL-FGFR3 cells; [3],8.8 µM
same,inhibition at 0.1 µM,"FGFR3; 3 h, read-out: FGFR3 % I",39%
same,IC50,[1]; [6],10 µM
N#Cc1ccc(-c2ccn3c(-c4cccc(NC(=O)NCC(F)(F)F)c4)cnc3c2)nn1 [Compound 255],melting point,,267 °C
same,inhibition at 10 µM,[1]; [4],0%
CCCCCOC(=O)Nc1nc(-c2ccn3c(-c4cccc(NC(=O)NCC(F)(F)F)c4)cnc3c2)ncc1F [Compound 331],inhibition at 3 µM,"VEGFR2; 1 h, read-out: VEGFR2 % I",43%
same,IC50,Ba/F3-TEL-FGFR3 cells; [3],1.6 µM
same,inhibition at 0.03 µM,"FGFR3; 3 h, read-out: FGFR3 % I",42%
same,inhibition at 10 µM,[1]; [5],60%
O=C(NCC(F)(F)F)Nc1cccc(-c2cnc3cc(-c4cnc(C(F)(F)F)nc4)ccn23)c1 [Example 232],IC50,Ba/F3-TEL-FGFR3 cells; [3],0.045 µM
same,inhibition at 0.001 µM,"FGFR3; 3 h, read-out: FGFR3 % I",45%
same,IC50,[1]; [6],0.6 µM
O=C(NCC(F)(F)F)Nc1cccc(-c2cnc3cc(-c4ncc(CO)cn4)ccn23)c1 [Compound 276],melting point,,222 °C
same,inhibition at 1 µM,[1]; [4],0%
CCNc1nnc(-c2ccn3c(-c4cccc(NC(=O)NCC(F)(F)F)c4)cnc3c2)s1 [Compound 286],inhibition at 3 µM,"Ba/F3-TEL-FGFR3 cells; read-out: BaF3-TEL-FGFR3 prolif, % inhibition",55%
same,inhibition at 0.0003 µM,"FGFR3; 3 h, read-out: FGFR3 % I",57%
same,inhibition at 10 µM,[1]; [4],0%
Cc1ccc(NC(=O)NCC(F)(F)F)cc1-c1cnc2cc(-c3ncc(F)c(N)n3)ccn12 [Compound 283],IC50,VEGFR2,> 10 µM
same,IC50,"FGFR3; read-out: FGFR3 IC50, […]",> 1000 nM
O=C(NCC(F)(F)F)Nc1cccc(-c2cnc3cc(-c4ccc(C(F)(F)F)nn4)ccn23)c1 [Example 229],inhibition at 0.3 µM,"VEGFR2; 1 h, at 0.3 μM, read-out: VEGFR2 % I",59%
same,IC50,Ba/F3-TEL-FGFR3 cells; [3],0.32 µM
same,inhibition at 0.03 µM,"FGFR3; 3 h, read-out: FGFR3 % I",67%
same,IC50,[1]; [6],5.5 µM
"CC(C)(C)OC(=O)N1CCC(n2cc(-c3ccn4c(-c5cncc(NC(=O)NCC(F)(F)F)c5)cnc4c3)cn2)CC1 [Example 55, 4-[4-(3-{5-[3-(2,2,2-Trifluoro-ethyl)-ureido]-pyridin-3-yl}-imidazo[1,2-a]pyridin-7-yl)-pyrazol-1-yl]-piperidine-1-carboxylic acid tert-butyl ester]",inhibition at 0.0003 µM,"FGFR3; 3 h, read-out: FGFR3 % I",38%
Nc1nc(-c2ccn3c(-c4cc(NC(=O)NCC(F)(F)F)cc(OC5CCCC5)c4)cnc3c2)ncc1F [Compound 281],inhibition at 0.1 µM,"FGFR3; 3 h, read-out: FGFR3 % I",42%
same,IC50,[1]; [6],1.4 µM
NC1CCN(c2ccc(-c3ccn4c(-c5cccc(NC(=O)NCC(F)(F)F)c5)cnc4c3)cn2)CC1 [Compound 330],IC50,Ba/F3-TEL-FGFR3 cells; [3],0.027 µM
same,inhibition at 0.00097 µM,"FGFR3; 3 h, read-out: FGFR3 % I",66%
same,IC50,[1]; [6],0.56 µM
"CS(=O)(=O)N1CCC(n2cc(-c3ccn4c(-c5cccc(NC(=O)NCC(F)(F)F)c5)cnc4c3)cn2)CC1 [Example 74, 1-(3-{7-[1-(1-Methanesulfonyl-piperidin-4-yl)-1H-pyrazol-4-yl]-imidazo [1,2-a]pyridin-3-yl}-phenyl)-3-(2,2,2-trifluoro-ethyl)-urea]",IC50,[2],0.018 µM
same,IC50,Ba/F3-TEL-FGFR3 cells; [3],0.096 µM
same,inhibition at 0.0003 µM,"FGFR3; 3 h, read-out: FGFR3 % I",51.5%
same,IC50,[1]; [6],0.82 µM
"CC(C)(CO)n1cc(-c2ccn3c(-c4cccc(NC(=O)NCC(F)(F)F)c4)cnc3c2)cn1 [Example 10, 1-(3-{7-[1-(2-Hydroxy-1,1-dimethylethyl)-1H-pyrazol-4-yl]-imidazo[1,2-a]pyridin-3-yl}phenyl)-3-(2,2,2-trifluoroethyl)urea]",IC50,[2],0.047 µM
same,IC50,Ba/F3-TEL-FGFR3 cells; [3],0.3 µM
same,inhibition at 0.001 µM,"FGFR3; 3 h, read-out: FGFR3 % I",50%
same,IC50,[1]; [6],2.3 µM
"O=C(NCC(F)(F)F)Nc1cccc(-c2cnc3cc(-c4ccc(N5CCNCC5)nn4)ccn23)c1 [Example 23, 1-{3-[7-(6-Piperazin-1-ylpyridazin-3-yl)-imidazo[1,2-a]pyridin-3-yl]phenyl}-3-(2,2,2-trifluoroethyl)urea trifluoroacetate]",IC50,[2],0.63 µM
same,IC50,Ba/F3-TEL-FGFR3 cells; [3],0.42 µM
same,inhibition at 0.001 µM,"FGFR3; 3 h, read-out: FGFR3 % I",58%
same,inhibition at 10 µM,[1]; [5],0%
CNC(=O)c1ccc(-c2ccn3c(-c4cccc(NC(=O)NCC(F)(F)F)c4)cnc3c2)nc1 [Example 224],IC50,Ba/F3-TEL-FGFR3 cells; [3],0.033 µM
same,inhibition at 0.001 µM,"FGFR3; 3 h, read-out: FGFR3 % I",61%
same,inhibition at 3 µM,[1]; [4],16%
"CC(=O)N1CCC(n2cc(-c3ccn4c(-c5cccc(NC(=O)NCC(F)(F)F)c5)cnc4c3)cn2)CC1 [Example 63, 1-(3-{7-[1-(1-Acetyl-piperidin-4-yl)-1H-pyrazol-4-yl]-imidazo[1,2-a]pyridin-3-yl}-phenyl)-3-(2,2,2-trifluoro-ethyl)-urea formate]",IC50,[2],0.05 µM
same,IC50,Ba/F3-TEL-FGFR3 cells; [7],0.092 µM
same,inhibition at 0.0003 µM,"FGFR3; 3 h, read-out: FGFR3 % I",50.5%
same,IC50,[1]; [8],1.4 µM
